Source: patent publication US9783536B2, “Nitrogen-containing heterocyclic compound or salt thereof” (FUJIFILM Corporation, priority 2013, dated 2017)
Read-outs that look alike come from different tables or passages of the source.

Legend:
CHO-K1 cells = experiment: CHO cell toxicity test; format: cell-based, Chinese hamster; details: Cricetulus griseus; CHO-K1 cells, 24 hours culture with compound, CellTiter-Glo; read-out: IC50 value (concentration at which the number of viable cells was suppressed to 50% or less)
Outline: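 CHO-K1 cells were cultured 24 h, then exposed 24 h to compound at final 25.00 to 0.20 μmol/L in F-12 with 2% FCS. Viability read by CellTiter-Glo luminescence; inhibition % = 100 − (treated/untreated signal)×100.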

[1] = target: T1, GST fusion human ERK2 protein (Homo sapiens, UniProt P28482); experiment: ERK2 enzyme assay (1); format: biochemical; details: read-out: ERK2 enzyme inhibitory activity (1)
T1 construct: purchased Carna Biosciences, Inc; host or cells: E. coli expression system
T1 sequence (P28482 whole entry, the tested form may be a part): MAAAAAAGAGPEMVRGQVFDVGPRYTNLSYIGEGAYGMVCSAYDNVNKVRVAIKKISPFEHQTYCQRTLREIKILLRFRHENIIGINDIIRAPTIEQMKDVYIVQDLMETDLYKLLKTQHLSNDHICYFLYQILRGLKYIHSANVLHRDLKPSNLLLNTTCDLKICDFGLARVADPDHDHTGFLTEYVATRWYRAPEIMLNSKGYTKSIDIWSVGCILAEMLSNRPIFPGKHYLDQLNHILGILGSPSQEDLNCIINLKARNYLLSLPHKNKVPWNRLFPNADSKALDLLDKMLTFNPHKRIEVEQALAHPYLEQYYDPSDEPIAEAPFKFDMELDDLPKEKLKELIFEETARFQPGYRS
Outline: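 Enzyme (2.5 nmol/L, E. coli-expressed) preincubated with compound 15 min at room temperature in HEPES/MgCl2/DTT/Brij35 buffer, pH 7.5; reaction with 4.25 μmol/L FL-Peptide 8 and 43.1 μmol/L ATP for 120 min at 25 °C. Phosphorylated peptide fraction quantified by mobility-shift separation after EDTA stop; IC50 calculated.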

[2] = target: T1, GST fusion human ERK2 protein; experiment: ERK2 enzyme assay (2); format: biochemical; details: read-out: ERK2 enzyme inhibitory activity (2)
Outline: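 GST-tagged human ERK2 expressed in E. coli (1.25 nmol/L) was preincubated with compound for 15 min at room temperature in pH 7.5 Hepes buffer with MgCl2, DTT and Brij35. Reaction with FL-Peptide 8 (final 4.25 μmol/L) and ATP (final 1 mmol/L) ran 120 min at 25 °C; EDTA stopped it, and phosphorylated peptide was quantified by mobility-shift separation to derive IC50.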

human PI3Kα protein = target: T2, human PI3Kα protein (Homo sapiens, UniProt P42336); experiment: PI3Kα enzyme assay (ADP-Glo); format: biochemical; details: read-out: PI3Kα enzyme inhibitory activity
T2 construct: purchased Carna Biosciences, Inc; host or cells: baculovirus expression system
T2 sequence (P42336 whole entry): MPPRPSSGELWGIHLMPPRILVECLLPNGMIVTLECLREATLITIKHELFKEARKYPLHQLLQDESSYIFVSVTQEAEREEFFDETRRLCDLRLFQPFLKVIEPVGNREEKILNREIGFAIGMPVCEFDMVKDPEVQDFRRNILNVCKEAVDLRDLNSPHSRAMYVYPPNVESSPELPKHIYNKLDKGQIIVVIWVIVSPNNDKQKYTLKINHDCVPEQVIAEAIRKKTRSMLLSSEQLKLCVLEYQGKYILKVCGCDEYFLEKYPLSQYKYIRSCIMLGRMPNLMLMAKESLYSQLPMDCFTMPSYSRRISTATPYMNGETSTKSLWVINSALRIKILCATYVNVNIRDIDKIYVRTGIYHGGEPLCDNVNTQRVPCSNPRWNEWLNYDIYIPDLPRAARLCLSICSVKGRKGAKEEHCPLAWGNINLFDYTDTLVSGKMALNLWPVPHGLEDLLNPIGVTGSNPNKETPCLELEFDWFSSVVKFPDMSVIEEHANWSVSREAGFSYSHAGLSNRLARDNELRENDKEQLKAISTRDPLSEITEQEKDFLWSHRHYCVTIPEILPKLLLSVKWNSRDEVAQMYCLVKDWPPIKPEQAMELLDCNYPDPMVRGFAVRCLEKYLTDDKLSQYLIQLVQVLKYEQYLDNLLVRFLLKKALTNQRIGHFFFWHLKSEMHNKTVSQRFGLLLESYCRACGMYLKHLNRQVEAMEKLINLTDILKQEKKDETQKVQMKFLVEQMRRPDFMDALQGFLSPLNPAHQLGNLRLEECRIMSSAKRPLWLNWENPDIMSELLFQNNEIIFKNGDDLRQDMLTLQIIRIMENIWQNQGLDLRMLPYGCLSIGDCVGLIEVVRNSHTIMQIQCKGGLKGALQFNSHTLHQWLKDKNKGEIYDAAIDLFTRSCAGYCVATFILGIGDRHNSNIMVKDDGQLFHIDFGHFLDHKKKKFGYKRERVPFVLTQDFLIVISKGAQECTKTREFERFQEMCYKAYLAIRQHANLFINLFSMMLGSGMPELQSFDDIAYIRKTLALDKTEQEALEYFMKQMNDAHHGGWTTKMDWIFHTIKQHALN
T2 sequence (P27986 whole entry partner): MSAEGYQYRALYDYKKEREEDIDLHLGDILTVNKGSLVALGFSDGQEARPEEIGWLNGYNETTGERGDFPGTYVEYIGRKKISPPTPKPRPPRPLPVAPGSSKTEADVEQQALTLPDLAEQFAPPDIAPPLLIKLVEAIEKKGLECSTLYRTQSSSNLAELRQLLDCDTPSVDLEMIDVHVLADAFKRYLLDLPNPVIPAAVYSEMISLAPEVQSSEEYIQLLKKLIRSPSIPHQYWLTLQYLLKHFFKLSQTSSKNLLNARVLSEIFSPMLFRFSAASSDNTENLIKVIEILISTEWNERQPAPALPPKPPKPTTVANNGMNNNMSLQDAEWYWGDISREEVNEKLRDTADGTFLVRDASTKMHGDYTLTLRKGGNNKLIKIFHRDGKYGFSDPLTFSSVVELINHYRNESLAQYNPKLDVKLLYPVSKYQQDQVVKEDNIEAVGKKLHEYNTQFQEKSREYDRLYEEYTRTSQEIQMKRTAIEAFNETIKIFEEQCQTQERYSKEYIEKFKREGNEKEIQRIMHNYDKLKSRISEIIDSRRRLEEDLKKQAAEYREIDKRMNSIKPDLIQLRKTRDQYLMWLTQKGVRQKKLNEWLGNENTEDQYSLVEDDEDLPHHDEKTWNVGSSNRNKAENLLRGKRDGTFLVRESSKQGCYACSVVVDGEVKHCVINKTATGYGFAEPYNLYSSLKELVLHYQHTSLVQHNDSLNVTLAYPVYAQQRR
Outline: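 Biotinylated human PI3Kα (baculovirus-expressed, 4.5 nmol/L) pre-incubated 15 min with compound in Tris-HCl pH 7.5, MgCl2, BSA; reaction 60 min at 25° C with 50 μmol/L PIP2 and 100 μmol/L ATP final. ADP quantified by ADP-Glo luminescence; IC50 calculated.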

[3] = 2.5 nmol/L ERK2, ATP 43.1 μmol/L
[4] = 4.5 nmol/L PI3Kα, PIP2 50 μmol/L, ATP 100 μmol/L

IC50 [1, 3]	IC50 ([2]; 1.25 nmol/L ERK2, ATP 1 mmol/L)	IC50 (human PI3Kα protein; [4])	IC50 ([1]; ERK2 enzyme assay (1))	IC50 ([2]; ERK2 enzyme assay (2))	IC50 (human PI3Kα protein)	SMILES	IC50 (CHO-K1 cells)
< 1000 nM	< 1000 nM	< 1000 nM				Cc1nnc(Nc2ccc3ncc(-c4cnn(C)c4)cc3n2)s1 [Example 0027]	≥ 25000 nM
< 1000 nM	< 1000 nM	< 1000 nM				CCCc1nn(C)cc1-c1cnc2ccc(Nc3nnc(C(C)C)s3)nc2c1 [Example 0122]	≥ 25000 nM
< 1000 nM	< 1000 nM	< 1000 nM				CCCCc1nn(C)cc1-c1cnc2ccc(Nc3nnc(C(C)C)s3)nc2c1 [Example 0130]	≥ 25000 nM
< 1000 nM	< 1000 nM	< 1000 nM				Cc1cnnc(Nc2ccc3ncc(-c4cnn(C)c4)cc3n2)c1 [Example 0139]	≥ 25000 nM
< 1000 nM	< 1000 nM	< 1000 nM				CC(C)c1cnnc(Nc2ccc3ncc(-c4cnn(C)c4)cc3n2)c1 [Example 0145]	≥ 25000 nM
			< 1000 nM	< 1000 nM	1000 to 10000 nM	Cn1cc(-c2cnc3ccc(Nc4nnc(N5CCOCC5)s4)nc3c2)cn1 [Example 0226, N-(7-(1-methyl-1H-pyrazol-4-yl)-1,5-naphthyridin-2-yl)-5-morpholino-1,3,4-thiadiazole-2-amine]	≥ 25000 nM
			< 1000 nM	< 1000 nM	< 1000 nM	Cn1cc(-c2cnc3ccc(Nc4nnc(C5CCCO5)s4)nc3c2)cn1 (stereo not shown) [Example 0227]	≥ 25000 nM
			< 1000 nM	< 1000 nM	1000 to 10000 nM	Cn1cc(-c2cnc3ccc(Nc4nnc(CC5CCCO5)s4)nc3c2)cn1 (stereo not shown) [Example 0241]	≥ 25000 nM
			< 1000 nM	< 1000 nM	< 1000 nM	Cn1cc(-c2cnc3ccc(Nc4nnc(C5CCOC5)s4)nc3c2)cn1 (stereo not shown) [Example 0243, N-(7-(1-methyl-1H-pyrazol-4-yl)-1,5-naphthyridin-2-yl)-5-(tetrahydrofuran-3-yl)-1,3,4-thiadiazole-2-amine]	≥ 25000 nM
			< 1000 nM	< 1000 nM	1000 to 10000 nM	CN1CCCC1c1nnc(Nc2ccc3ncc(-c4cnn(C)c4)cc3n2)s1 (stereo not shown) [Example 0247, N-(7-(1-methyl-1H-pyrazol-4-yl)-1,5-naphthyridin-2-yl)-5-(1-methylpyrrolidin-2-yl)-1,3,4-thiadiazole-2-amine]	≥ 25000 nM
			< 1000 nM	< 1000 nM	< 1000 nM	OCCCn1cc(-c2cnc3ccc(Nc4nnc(C5CCCC5)s4)nc3c2)cn1 [Example 0316, 3-(4-(6-((5-cyclopentyl-1,3,4-thiadiazol-2-yl)amino)-1,5-naphthyridin-3-yl)-1H-pyrazol-1-yl)propan-1-ol]	≥ 25000 nM
			< 1000 nM	< 1000 nM	< 1000 nM	OCC(O)Cn1cc(-c2cnc3ccc(Nc4nnc(C5CCCC5)s4)nc3c2)cn1 (stereo not shown) [Example 0338, 3-(4-(6-((5-Cyclopentyl-1,3,4-thiadiazol-2-yl)amino)-1,5-naphthyridin-3-yl)-1H-pyrazol-1-yl)propane-1,2-diol]	≥ 25000 nM
			< 1000 nM		< 1000 nM	CCc1nnc(Nc2ccc3ncc(-c4cnn(CCCN5CCCC5)c4)cc3n2)s1 [Example 0363]	≥ 25000 nM

The remaining lines, values behind:

SMILES	IC50 [1, 3]	IC50 ([2]; 1.25 nmol/L ERK2, ATP 1 mmol/L)	IC50 (human PI3Kα protein; [4])	IC50 ([1]; ERK2 enzyme assay (1))	IC50 ([2]; ERK2 enzyme assay (2))	IC50 (human PI3Kα protein)	IC50 (CHO-K1 cells)
c1nc2ccc(Nc3cc(C4CCC4)cnn3)nc2cc1-c1cnn(CCCN2CCCC2)c1 [Example 0015, N-(5-cyclobutylpyridazin-3-yl)-7-(1-(3-(pyrrolidin-1-yl)propyl)-1H-pyrazol-4-yl)-1,5-naphthyridine-2-amineformate]	< 1000 nM	< 1000 nM	< 1000 nM				≥ 25000 nM
COCc1cnnc(Nc2ccc3ncc(-c4cnn(CCCN5CCCC5)c4)cc3n2)c1 [Example 0018]	< 1000 nM	< 1000 nM	< 1000 nM				≥ 25000 nM
c1cnnc(Nc2ccc3ncc(-c4cnn(CCCN5CCCC5)c4)cc3n2)c1 [Example 0137, N-(pyridazin-3-yl)-7-(1-(3-(pyrrolidin-1-yl)propyl)-1H-pyrazol-4-yl)-1,5-naphthyridine-2-amine]	< 1000 nM	< 1000 nM	< 1000 nM				≥ 25000 nM
Cc1cnnc(Nc2ccc3ncc(-c4cnn(CCCN5CCCC5)c4)cc3n2)c1 [Example 0140]	< 1000 nM	< 1000 nM	< 1000 nM				≥ 25000 nM
CC(C)c1cnnc(Nc2ccc3ncc(-c4cnn(CCCN5CCCC5)c4)cc3n2)c1 [Example 0148]	< 1000 nM	< 1000 nM	< 1000 nM				≥ 25000 nM
Cc1[nH]ncc1-c1cnc2ccc(Nc3nnc(C4CCCC4)s3)nc2c1 [Example 0214]				< 1000 nM	< 1000 nM	1000 to 10000 nM	≥ 25000 nM
c1nc2ccc(Nc3nnc(CC4CCCO4)s3)nc2cc1-c1cnn(CCCN2CCCC2)c1 (stereo not shown) [Example 0240]				< 1000 nM	< 1000 nM	< 1000 nM	≥ 25000 nM
COc1cncc(Nc2cnc3ccc(Nc4nnc(CC5CCCO5)s4)nc3c2)c1 (stereo not shown) [Example 0250, N^7-(5-methoxypyridin-3-yl)-N^2-(5-((tetrahydrofuran-2-yl)methyl)-1,3,4-thiadiazol-2-yl)-1,5-naphthyridine-2,7-diamine]				< 1000 nM	< 1000 nM	< 1000 nM	≥ 25000 nM
CCc1cnnc(Nc2ccc3ncc(-c4cnn(CCCN5CCCC5)c4)cc3n2)c1 [Example 0291]				< 1000 nM	< 1000 nM	< 1000 nM	≥ 25000 nM
CCCc1cnnc(Nc2ccc3ncc(-c4cnn(CCCN5CCCC5)c4)cc3n2)c1 [Example 0293]				< 1000 nM	< 1000 nM	< 1000 nM	≥ 25000 nM
Cc1nn(CCCN2CCCC2)cc1-c1cnc2ccc(Nc3nnc(C(C)C)s3)nc2c1 [Example 0321, 5-isopropyl-N-(7-(3-methyl-1-(3-(pyrrolidin-1-yl)propyl)-1H-pyrazol-4-yl)-1,5-naphthyridin-2-yl)-1,3,4-thiadiazole-2-amine]				< 1000 nM	< 1000 nM	< 1000 nM	≥ 25000 nM
c1nnc(Nc2ccc3ncc(-c4cnn(CCCN5CCCC5)c4)cc3n2)s1 [Example 0322]				< 1000 nM	< 1000 nM	< 1000 nM	≥ 25000 nM
O=C(CCn1cc(-c2cnc3ccc(Nc4nnc(C5CCCC5)s4)nc3c2)cn1)N1CCCC1 [Example 0341, 3-(4-(6-((5-cyclopentyl-1,3,4-thiadiazol-2-yl)amino)-1,5-naphthyridin-3-yl)-1H-pyrazol-1-yl)-1-(pyrrolidin-1-yl)propan-1-one]				< 1000 nM	< 1000 nM	< 1000 nM	≥ 25000 nM
CC(C)c1cnnc(Nc2ccc3ncc(-c4cnn(CCCN5CCCCC5)c4)cc3n2)c1 [Example 0373, N-(5-isopropylpyridazin-3-yl)-7-(1-(3-(piperidin-1-yl)propyl)-1H-pyrazol-4-yl)-1,5-naphthyridine-2-amine]				< 1000 nM		< 1000 nM	≥ 25000 nM
CCN(CC)CCCn1cc(-c2cnc3ccc(Nc4cc(C(C)C)cnn4)nc3c2)cn1 [Example 0374, 7-(1-(3-(Diethylamino)propyl)-1H-pyrazol-4-yl)-N-(5-isopropylpyridazin-3-yl)-1,5-naphthyridine-2-amine]				< 1000 nM		< 1000 nM	≥ 25000 nM
CCCc1nn(CCCN2CCOCC2)cc1-c1cnc2ccc(Nc3cc(C(C)C)cnn3)nc2c1 [Example 0390, N-(5-isopropylpyridazin-3-yl)-7-(1-(3-morpholinopropyl)-3-propyl-1H-pyrazol-4-yl)-1,5-naphthyridine-2-amine]				< 1000 nM		< 1000 nM	≥ 25000 nM
CC(C)c1cnnc(Nc2ccc3ncc(-c4cnn(CCOC5CCOCC5)c4)cc3n2)c1 [Example 0395]				< 1000 nM		< 1000 nM	≥ 25000 nM
CC(C)c1cnnc(Nc2ccc3ncc(-c4cnn(CCC(O)C(F)(F)F)c4)cc3n2)c1 (stereo not shown) [Example 0400]				< 1000 nM		< 1000 nM	≥ 25000 nM
CC(C)(CO)c1cnnc(Nc2ccc3ncc(-c4cnn(CCCN5CCCC5)c4)cc3n2)c1 [Example 0405, 2-methyl-2-(6-((7-(1-(3-(pyrrolidin-1-yl)propyl)-1H-pyrazol-4-yl)-1,5-naphthyridin-2-yl)amino)pyridazin-4-yl)propan-1-ol]				< 1000 nM		< 1000 nM	≥ 25000 nM
CC(C)c1cnnc(Nc2ccc3ncc(-c4ccncc4)cc3n2)c1 [Example 0406]				< 1000 nM		< 1000 nM	≥ 25000 nM
